The fraction unbound is free concentration divided by total concentration. A high value points to much free substance.

Consider two compounds from patent publication US20240140947A1, “COMPOUND FOR THE TREATMENT OF CANCER” (priority 2022, published 2024).

One series concerns T47D PalboR. As to the kind of experiment: Cell proliferation assay (CYQUANT, 7 days), T47D PalboR. The format is cell-based. The conditions noted are these: Homo sapiens, 168 h, read-out: IC50 ± SEM, proliferation inhibition. Here is the method:
(§1) Cellular CDK activity of Compound 1 and PF-06873600 were assessed in human CCNE1-amplified ovarian cancer cell line model OVCAR3 and human ER+ breast cancer cell line model MCF7 cells. […] OVCAR3 cells were treated overnight with 1 mM hydroxyurea to enrich for G1/S phase cells prior to treatment with inhibitors. Functional effects were measured in a 7-day anti-proliferation assay in one human ovarian cancer (OVCAR3), two human ER+ breast cancer (MCF7 and T47D) and three human non-small cell lung cancer (NCIH2087, NCIH358 and A549) cell line models.
(§2) OVCAR3, MCF7, T47D, HCC1428, NCIH2087, NCIH358 or A549cells were seeded 1-3000 cells/well in 96-well plates in growth media containing 10% FBS and cultured overnight at 37° C. 5% CO2. […] CYQUANT Direct Cell Proliferation Assay (Molecular Probes, Eugene, OR) was then performed following manufacturer recommendations to determine the relative viable cell numbers on the Perkin Elmer Envision 2104 Multi Label Reader at 508 nm excitation and 527 nm emission wavelengths. IC50 values were calculated by concentration-response curve fitting utilizing a four-parameter analytical method using GraphPad Prism software.
(§3) The effect of Compound 1 on cell proliferation was assessed in multiple ER+ breast cancer cell lines, including parental and palbociclib resistant cell lines.

Another series deals with NCIH358. As to the kind of experiment: Cell proliferation assay (CYQUANT, 7 days), NCIH358. The series is classed as cell-based. The conditions noted are these: Homo sapiens, NCI-H358, 168 h, read-out: IC50 ± SEM, proliferation inhibition. Here is the method: as §1
as §2, with “CO2. The following day, compounds were serially diluted from a 10 mM top dose for an 11-point 3-fold dilution curve in DMSO.” for “CO2.”

Another series relates to NCIH2087. As to the kind of experiment: Cell proliferation assay (CYQUANT, 7 days), NCIH2087. The series is classed as cell-based. The conditions noted are these: Homo sapiens, NCI-H2087, 168 h, read-out: IC50 ± SEM, proliferation inhibition. Here is the method:
as §1
as §2, with “CO2. The following day, compounds were serially diluted from a 10 mM top dose for an 11-point 3-fold dilution curve in DMSO.” for “CO2.”

Series [1] in a line: Human blood binding (fub = fup/BPR). The series is classed as in vitro ADME. The conditions noted are these: fup divided by BPR. Here is the method:
Compound 1 has been evaluated according to methods well known in the art, for its ability to partition between human plasma and blood. Based on the observed partitioning and plasma protein binding, the blood binding was estimated based on human blood unbound fraction (fub)=human plasma unbound fraction (fup)/human blood-to-plasma partition ratio (BPR). Human blood unbound fraction (fub) was calculated by dividing fup by BPR.

The subject of series [2] is phosphorylation of Rb protein at serines 807/811 in OVCAR3 cells. The series is described as follows: Phospho-Serine 807/811 Rb ELISA in OVCAR3 cells. The series is classed as cell-based. The conditions noted are these: Homo sapiens, read-out: IC50 ± SEM, modulation of pRB Serine 807/811. Here is the method: as §1
(§4) OVCAR3 or MCF7 cells were seeded at 25,000 cells/well in 100 μL growth media and allowed to adhere at 37° C. with 5% CO2 overnight. OVCAR3 cells were treated overnight with 1 mM hydroxyurea to enrich for G1/S phase cells prior to treatment with inhibitors. The following day, compounds were serially diluted from a 10 mM top dose for an 11-point 3-fold dilution curve in DMSO. Compound 1 and PF-06873600 were intermediately diluted 1:200 into growth media prior to diluting 1:5 on cells for final concentration 10 μM to 0.1 nM in 0.1% DMSO on cells. […] Plates were read in luminescence mode and IC50 values calculated.
(§5) The cellular activity of Compound 1 was evaluated in ER+, HER2− MCF7 cells and CCNE1-amplified ovarian carcinoma. Activity was determined by inhibition of phosphorylation of […]
In general terms: An ELISA detects its analyte on a solid surface through an enzyme-linked reagent.

Series [3] has as its system phosphorylation of Rb protein at serines 807/811 in MCF7 cells. The series is described as follows: Phospho-Serine 807/811 Rb ELISA in MCF7 cells. The format is cell-based. The note with it: Homo sapiens, read-out: IC50 ± SEM, modulation of pRB Serine 807/811. Here is the method: as §1, §4, §5
The subject of the next series is MCF7 PalboR. The series is described as follows: Cell proliferation assay (CYQUANT, 7 days), MCF7 PalboR. The series is classed as cell-based. The conditions noted are these: Homo sapiens, read-out: IC50 ± SEM, proliferation inhibition. Here is the method:
as §1, §2, §3

The next series relates to HCC1428 parental. The series is described as follows: Cell proliferation assay (CYQUANT, 7 days), HCC1428 parental. The format is cell-based. The note with it: Homo sapiens, read-out: IC50 ± SEM, proliferation inhibition. Here is the method:
OVCAR3, MCF7, T47D, HCC1428, NCIH2087, NCIH358 or A549cells were seeded 1-3000 cells/well in 96-well plates in growth media containing 10% FBS and cultured overnight at 37° C. 5% CO2. The following day, compounds were serially diluted from a 10 mM top dose for an 11-point 3-fold dilution curve in DMSO. Compound 1 and PF-06873600 were intermediately diluted 1:200 into growth media prior to diluting 1:5 on cells for final concentration 10 μM to 0.1 nM in 0.1% DMSO on cells. Cells were incubated at 37° C. 5% CO2 for 7 days. CYQUANT Direct Cell Proliferation Assay (Molecular Probes, Eugene, OR) was then performed following manufacturer recommendations to determine the relative viable cell numbers on the Perkin Elmer Envision 2104 Multi Label Reader at 508 nm excitation and 527 nm emission wavelengths. IC50 values were calculated by concentration-response curve fitting utilizing a four-parameter analytical method using GraphPad Prism software.
as §3

A further series relates to OVCAR3. The series is described as follows: Cell proliferation assay (CYQUANT, 7 days), OVCAR3. The format is cell-based. The conditions noted are these: Homo sapiens, OVCAR-3, 168 h, read-out: IC50 ± SEM, proliferation inhibition. Here is the method:
as §1
as §2, with “CO2. The following day, compounds were serially diluted from a 10 mM top dose for an 11-point 3-fold dilution curve in DMSO.” for “CO2.”

Series [4] can be described thus: Mouse early toxicology screening (ETS) study. The series is classed as in vivo. The note with it: for bone marrow histology: day 14, Compound 1 75 mg/kg BID, PF-06873600 150 mg/kg BID, compared with vehicle. Here is the method: Three groups of ten-week-old male CD1 mice were separately evaluated in early toxicology screening studies. Group 1 (n=5/group) were administered an oral dose of 25, 50 and 75 mg/kg BID of Compound 1 for 14 days. Group 2 (n=5/group) were administered an oral dose of 25, 75 and 150 mg/kg BID of PF-06873600 for 14 days. A vehicle control Group 3 (n=5/group) were also included where vehicle was administered BID for 14 days. Study evaluations included clinical observations, body weights, clinical pathology, toxicokinetics, gross pathology and microscopic pathology.
At the end of the ETS study on day 14, mice were sacrificed and images of the mouse bone marrow from each study group (n=5) were obtained.
The systemic exposure of Compound 1 and PF-06873600 were also compared. Exposures from mouse toxicity studies were determined using plasma samples collected as timepoints on day 8 or 14 of the study and were processed using protein precipitation with solvent mixture acetonitrile:methanol (1:1) containing internal standard verapamil followed by quantitation by LC-MS/MS against a standard curve prepared in blank plasma. The free plasma concentrations were calculated using the mouse plasma protein binding for compound 1 (fup=0.182) and PF-06873600 (fup=0.277). (FIG. 3)

Like-named read-outs stand apart in the source and are kept apart here.

Regarding `C[C@@]1(O)CCC[C@H]1n1c(=O)c(CC(F)F)cc2cnc(NC3CCN(S(N)(=O)=O)CC3)nc21` [Compound 1, 4-({6-(2,2-difluoroethyl)-8-[(1R,2R)-2-hydroxy-2-methylcyclopentyl]-7-oxo-7,8-dihydropyrido[2,3-d]pyrimidin-2-yl}amino)piperidine-1-sulfonamide], the IC50 turned out to be 65.7 ± 8.8 nM in the series on T47D PalboR (T47D PalboR, 7 days, mean); 21 ± 2.2 nM in the series on NCIH358 (NCIH358, 7 days, mean); 40 ± 6.8 nM in the series on NCIH2087 (NCIH2087, 7 days, mean); 16.2 nM in [2] (OVCAR-3, OVCAR3, mean, treated 1 h after overnight 1 mM hydroxyurea); 148 nM in series [3] (MCF7, mean, treated 24 h (overnight)); 37.3 ± 2.8 nM with MCF7 PalboR (168 h, MCF7 PalboR, 7 days, mean). Further, the IC50 in the series on HCC1428 parental (168 h, HCC1428 parental, 7 days, mean) came out at 14.3 ± 4.4 nM; with OVCAR3 (OVCAR3, 7 days, mean), 11.4 nM. For the same compound, in [1], the fraction unbound turned out to be 0.0022. The bone marrow histology result in series [4] is “lack of impact on the mouse bone marrow”. Moreover, in series [4] (male CD1 mice, oral 25, 50 and 75 mg/kg BID for 14 days), the neutropenia result was “no neutropenia was observed”.

In the case of `C[C@@]1(O)CCC[C@H]1n1c(=O)c(C(F)F)cc2cnc(NC3CCN(S(C)(=O)=O)CC3)nc21` [Compound 2, reference compound], the IC50 was found to be 253 ± 55.1 nM in the series with T47D PalboR (T47D); 39 nM with NCIH358; 79.8 nM in the series on NCIH2087; 21.8 nM in series [2] (OVCAR-3, 1 h); 70.6 nM in series [3] (MCF7, 24 h); 111 ± 56.1 nM in the series with MCF7 PalboR (MCF7, 168 h). The IC50 in the series on HCC1428 parental (HCC1428, 168 h) was 96.7 ± 26.4 nM; in the series with OVCAR3, 70 ± 11.7 nM. The compound further yielded a fraction unbound in series [1] of 0.32. The bone marrow histology result in [4] is “vacuoles and large spaces between cells in the bone marrow image indicating cell death/apoptosis”.
